Assay [1] deals with T47D. Briefly: Growth inhibition of human T47D cells assessed as cell growth at 10 uM incubated for 48 hrs by sulforhodamine B assay relative to control. It is filed as functional. The following applies: read-out: Activity. In general terms: Sulforhodamine B stains cellular protein and so reports cell mass.
The test system of the next assay is MDA-MB-468. The assay is described as follows: Growth inhibition of human MDA-MB-468 cells assessed as cell growth at 1 uM incubated for 48 hrs by sulforhodamine B assay relative to control. It is filed as functional. The following applies: MDA-MB-468, 48 h, read-out: Activity.
In a further assay the test system is NCI-H460. Briefly: Growth inhibition of human NCI-H460 cells assessed as cell growth at 10 uM incubated for 48 hrs by sulforhodamine B assay relative to control. The class given is functional. The following applies: NCI-H460, 48 h, read-out: Activity.
A further assay deals with NCI-H522. The assay is described as follows: Growth inhibition of human NCI-H522 cells assessed as cell growth at 0.005 uM incubated for 48 hrs by sulforhodamine B assay relative to control. It is filed as functional. The following applies: NCI-H522, 48 h, read-out: Activity.
The subject of a further assay is HOP-62. The assay is described as follows: Growth inhibition of human HOP62 cells assessed as cell growth at 0.005 uM incubated for 48 hrs by sulforhodamine B assay relative to control. It is filed as functional. The following applies: HOP-62, 48 h, read-out: Activity.
Another assay relates to HCT-116. The assay is described as follows: Growth inhibition of human HCT116 cells assessed as cell growth at 50 uM incubated for 48 hrs by sulforhodamine B assay relative to control. It is filed as functional. As to conditions: HCT-116, 48 h, read-out: Activity.
For assay [2], the system named is SK-MEL-2. Briefly: Growth inhibition of human SK-MEL-2 cells assessed as cell growth at 5 uM incubated for 48 hrs by sulforhodamine B assay relative to control. It is filed as functional. The following applies: SK-MEL-2, 48 h, read-out: Activity.
The next assay has as its system MDA-MB-231. Briefly: Growth inhibition of human MDA-MB-231 cells assessed as cell growth at 50 uM incubated for 48 hrs by sulforhodamine B assay relative to control. It is filed as functional. The following applies: MDA-MB-231, 48 h, read-out: Activity.
Assay [3] relates to K562. The assay is described as follows: Growth inhibition of human K562 cells assessed as cell growth at 0.05 uM incubated for 48 hrs by sulforhodamine B assay relative to control. It is filed as functional. As to conditions: K562, 48 h, read-out: Activity.
Another assay deals with MOLT-4. Briefly: Growth inhibition of human MOLT4 cells assessed as cell growth at 50 uM incubated for 48 hrs by sulforhodamine B assay relative to control. The class given is functional. The following applies: MOLT-4, 48 h, read-out: Activity.
Assay [4] deals with SK-MEL-2. Briefly: Growth inhibition of human SK-MEL-2 cells assessed as cell growth at 0.005 uM incubated for 48 hrs by sulforhodamine B assay relative to control. The class given is functional. As to conditions: SK-MEL-2, 48 h, read-out: Activity.
For another assay, the system named is A498. The assay is described as follows: Growth inhibition of human A498 cells assessed as cell growth at 0.5 uM incubated for 48 hrs by sulforhodamine B assay relative to control. The class given is functional. As to conditions: A498, 48 h, read-out: Activity.
The next assay relates to OVCAR-3. Briefly: Growth inhibition of human OVCAR3 cells assessed as cell growth at 0.05 uM incubated for 48 hrs by sulforhodamine B assay relative to control. It is filed as functional. The following applies: OVCAR-3, 48 h, read-out: Activity.
The test system of assay [5] is SF-295. Briefly: Growth inhibition of human SF295 cells assessed as cell growth at 0.5 uM incubated for 48 hrs by sulforhodamine B assay relative to control. The class given is functional. As to conditions: SF-295, 48 h, read-out: Activity.
Assay [6] has as its system SF-295. Briefly: Growth inhibition of human SF295 cells assessed as cell growth at 5 uM incubated for 48 hrs by sulforhodamine B assay relative to control. It is filed as functional. As to conditions: SF-295, 48 h, read-out: Activity.
Assay [7] deals with SNB-19. The assay is described as follows: Growth inhibition of human SNB19 cells assessed as cell growth at 5 uM incubated for 48 hrs by sulforhodamine B assay relative to control. It is filed as functional. As to conditions: SNB-19, 48 h, read-out: Activity.
The subject of assay [8] is SNB-19. The assay is described as follows: Growth inhibition of human SNB19 cells assessed as cell growth at 50 uM incubated for 48 hrs by sulforhodamine B assay relative to control. As to conditions: SNB-19, 48 h, read-out: Activity. It is filed as functional.
Assay [9] deals with ACHN. The assay is described as follows: Growth inhibition of human ACHN cells assessed as cell growth at 50 uM incubated for 48 hrs by sulforhodamine B assay relative to control. It is filed as functional. The following applies: read-out: Activity.
The next assay concerns MCF7. The assay is described as follows: Growth inhibition of human MCF7 cells assessed as cell growth at 0.05 uM incubated for 48 hrs by sulforhodamine B assay relative to control. The following applies: MCF7, 48 h, read-out: Activity. It is filed as functional.
For the next assay, the system named is UACC-257. The assay is described as follows: Growth inhibition of human UACC257 cells assessed as cell growth at 0.05 uM incubated for 48 hrs by sulforhodamine B assay relative to control. The class given is functional. The following applies: UACC-257, 48 h, read-out: Activity.
In assay [10] the test system is T47D. Briefly: Growth inhibition of human T47D cells assessed as cell growth at 0.005 uM incubated for 48 hrs by sulforhodamine B assay relative to control. It is filed as functional. The following applies: read-out: Activity.
Assay [11] relates to K562. The assay is described as follows: Growth inhibition of human K562 cells assessed as cell growth at 50 uM incubated for 48 hrs by sulforhodamine B assay relative to control. The following applies: K562, 48 h, read-out: Activity. It is filed as functional.
Another assay deals with EKVX. The assay is described as follows: Growth inhibition of human EKVX cells assessed as cell growth at 0.005 uM incubated for 48 hrs by sulforhodamine B assay relative to control. It is filed as functional. As to conditions: read-out: Activity.
The test system of the next assay is OVCAR-4. Briefly: Growth inhibition of human OVCAR4 cells assessed as cell growth at 5 uM incubated for 48 hrs by sulforhodamine B assay relative to control. As to conditions: OVCAR-4, 48 h, read-out: Activity. It is filed as functional.
The test system of a further assay is NCI-H322M. Briefly: Growth inhibition of human NCI-H322M cells assessed as cell growth at 0.5 uM incubated for 48 hrs by sulforhodamine B assay relative to control. It is filed as functional. As to conditions: read-out: Activity.
Assay [12] has as its system ACHN. Briefly: Growth inhibition of human ACHN cells assessed as cell growth at 0.05 uM incubated for 48 hrs by sulforhodamine B assay relative to control. As to conditions: read-out: Activity. It is filed as functional.
The next assay deals with HT-29. Briefly: Growth inhibition of human HT-29 cells assessed as cell growth at 0.05 uM incubated for 48 hrs by sulforhodamine B assay relative to control. It is filed as functional. The following applies: HT-29, 48 h, read-out: Activity.
The next assay deals with U-251. Briefly: Growth inhibition of human U251 cells assessed as cell growth at 0.5 uM incubated for 48 hrs by sulforhodamine B assay relative to control. It is filed as functional. As to conditions: U-251, 48 h, read-out: Activity.
Another assay concerns M14. The assay is described as follows: Growth inhibition of human M14 cells assessed as cell growth at 0.005 uM incubated for 48 hrs by sulforhodamine B assay relative to control. The class given is functional. As to conditions: M14, 48 h, read-out: Activity.
The target of assay [13] is RAC-alpha serine/threonine-protein kinase (Homo sapiens) (UniProt P31749). The assay is described as follows: Inhibition of human AKT1 at 10 uM using KGSGSGRPRTSSFAEG as substrate in presence of [33P]ATP by Hotspot assay relative to control.
Assay [14] has as its target Receptor tyrosine-protein kinase erbB-2 (Homo sapiens) (UniProt P04626). The assay is described as follows: Inhibition of human HER2 at 10 uM using poly[Glu:Tyr] (4:1) as substrate in presence of [33P]ATP by Hotspot assay relative to control.
In assay [15] the target is Serine/threonine-protein kinase B-raf (Homo sapiens, UniProt P15056). The assay is described as follows: Inhibition of human BRAF at 10 uM using MEK1 as substrate in presence of [33P]ATP by Hotspot assay relative to control.
Assay [16] deals with Mitogen-activated protein kinase 1 (Homo sapiens) (UniProt P28482). Briefly: Inhibition of human ERK2 at 10 uM using myelin basic protein as substrate in presence of [33P]ATP by Hotspot assay relative to control.

SMILES strings stand for the structures.

Chain of RAC-alpha serine/threonine-protein kinase (Homo sapiens) (P31749 whole entry): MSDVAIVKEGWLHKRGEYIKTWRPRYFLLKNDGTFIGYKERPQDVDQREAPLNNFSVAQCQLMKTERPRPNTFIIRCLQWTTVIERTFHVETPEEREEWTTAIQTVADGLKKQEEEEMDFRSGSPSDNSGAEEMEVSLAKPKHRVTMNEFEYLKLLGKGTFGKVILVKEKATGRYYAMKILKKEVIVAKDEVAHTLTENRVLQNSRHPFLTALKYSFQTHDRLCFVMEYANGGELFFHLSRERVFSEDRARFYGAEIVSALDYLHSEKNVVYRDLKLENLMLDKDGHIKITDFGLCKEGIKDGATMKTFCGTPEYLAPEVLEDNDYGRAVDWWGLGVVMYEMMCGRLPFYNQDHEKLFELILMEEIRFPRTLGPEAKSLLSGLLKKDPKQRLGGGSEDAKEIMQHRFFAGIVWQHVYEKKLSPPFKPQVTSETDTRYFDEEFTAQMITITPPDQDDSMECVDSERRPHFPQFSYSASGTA
Chain of Mitogen-activated protein kinase 1 (Homo sapiens) (P28482 whole entry): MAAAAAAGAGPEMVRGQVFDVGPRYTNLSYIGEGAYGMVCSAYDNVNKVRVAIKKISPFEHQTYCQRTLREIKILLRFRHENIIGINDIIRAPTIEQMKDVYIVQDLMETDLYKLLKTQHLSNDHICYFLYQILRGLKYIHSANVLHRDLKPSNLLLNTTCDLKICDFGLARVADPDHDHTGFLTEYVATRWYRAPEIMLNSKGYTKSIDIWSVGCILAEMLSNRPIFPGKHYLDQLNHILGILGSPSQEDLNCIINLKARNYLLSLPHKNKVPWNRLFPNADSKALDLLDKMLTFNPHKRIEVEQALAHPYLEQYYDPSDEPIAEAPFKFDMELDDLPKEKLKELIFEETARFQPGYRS
Chain of Receptor tyrosine-protein kinase erbB-2 (Homo sapiens) (P04626 whole entry): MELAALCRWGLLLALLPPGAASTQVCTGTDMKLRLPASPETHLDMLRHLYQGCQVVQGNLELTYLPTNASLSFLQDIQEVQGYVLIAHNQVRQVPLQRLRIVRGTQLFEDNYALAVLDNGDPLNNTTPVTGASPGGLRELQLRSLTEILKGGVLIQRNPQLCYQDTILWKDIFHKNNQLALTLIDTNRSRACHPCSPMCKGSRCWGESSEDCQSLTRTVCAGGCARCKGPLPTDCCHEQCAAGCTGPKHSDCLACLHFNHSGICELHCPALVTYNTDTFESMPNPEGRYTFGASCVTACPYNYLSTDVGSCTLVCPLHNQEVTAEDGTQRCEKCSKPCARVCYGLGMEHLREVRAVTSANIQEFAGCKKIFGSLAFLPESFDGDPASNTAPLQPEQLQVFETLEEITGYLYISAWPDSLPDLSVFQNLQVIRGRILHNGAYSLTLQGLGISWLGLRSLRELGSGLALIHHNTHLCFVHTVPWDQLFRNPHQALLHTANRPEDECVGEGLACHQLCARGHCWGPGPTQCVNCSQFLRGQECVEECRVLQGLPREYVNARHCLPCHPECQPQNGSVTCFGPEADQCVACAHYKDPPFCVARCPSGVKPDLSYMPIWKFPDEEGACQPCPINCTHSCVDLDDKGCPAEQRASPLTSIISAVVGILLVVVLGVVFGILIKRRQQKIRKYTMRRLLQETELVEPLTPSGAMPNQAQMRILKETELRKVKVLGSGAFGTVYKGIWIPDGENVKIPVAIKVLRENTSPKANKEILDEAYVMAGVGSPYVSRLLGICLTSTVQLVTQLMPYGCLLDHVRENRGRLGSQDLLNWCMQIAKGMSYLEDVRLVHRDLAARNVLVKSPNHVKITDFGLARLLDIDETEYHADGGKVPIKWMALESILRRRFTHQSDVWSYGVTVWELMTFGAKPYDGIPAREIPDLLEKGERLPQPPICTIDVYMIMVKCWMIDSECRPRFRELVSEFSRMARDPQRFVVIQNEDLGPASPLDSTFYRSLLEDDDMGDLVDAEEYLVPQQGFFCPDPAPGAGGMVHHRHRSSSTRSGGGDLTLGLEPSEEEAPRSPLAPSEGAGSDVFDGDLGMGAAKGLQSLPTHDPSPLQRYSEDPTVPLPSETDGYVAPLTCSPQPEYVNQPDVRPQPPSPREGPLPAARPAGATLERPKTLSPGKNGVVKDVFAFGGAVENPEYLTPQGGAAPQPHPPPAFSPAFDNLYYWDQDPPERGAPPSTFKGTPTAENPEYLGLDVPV
Chain of Serine/threonine-protein kinase B-raf (P15056 whole entry): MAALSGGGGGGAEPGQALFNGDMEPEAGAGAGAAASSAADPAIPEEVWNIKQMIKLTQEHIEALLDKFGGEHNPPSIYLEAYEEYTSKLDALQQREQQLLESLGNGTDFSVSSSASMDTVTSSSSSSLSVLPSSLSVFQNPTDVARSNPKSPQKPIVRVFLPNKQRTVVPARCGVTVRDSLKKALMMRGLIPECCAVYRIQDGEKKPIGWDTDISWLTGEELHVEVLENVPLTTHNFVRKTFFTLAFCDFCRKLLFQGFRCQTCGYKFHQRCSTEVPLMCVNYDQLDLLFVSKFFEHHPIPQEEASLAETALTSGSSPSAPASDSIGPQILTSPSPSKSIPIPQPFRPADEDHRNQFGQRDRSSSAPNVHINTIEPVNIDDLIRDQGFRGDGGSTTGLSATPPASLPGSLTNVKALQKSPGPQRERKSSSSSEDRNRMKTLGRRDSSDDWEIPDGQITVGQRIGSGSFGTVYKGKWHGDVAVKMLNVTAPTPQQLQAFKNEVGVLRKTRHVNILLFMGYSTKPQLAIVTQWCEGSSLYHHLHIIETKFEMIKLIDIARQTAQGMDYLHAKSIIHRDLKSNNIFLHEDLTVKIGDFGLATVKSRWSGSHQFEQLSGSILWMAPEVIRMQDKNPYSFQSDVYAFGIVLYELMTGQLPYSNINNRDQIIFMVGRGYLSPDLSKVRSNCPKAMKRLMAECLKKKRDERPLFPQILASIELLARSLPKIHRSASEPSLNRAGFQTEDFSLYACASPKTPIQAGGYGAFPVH

Consider `COc1cc2cc(Oc3ccc(NC(=O)Nc4cc(C(F)(F)F)cc(C(F)(F)F)c4)cc3)c(C)nc2cc1OC`, for which the growth at 10 µM in the assay on T47D [1] is -21%; with NCI-H460, -64%. For the same molecule, the growth at 1 µM in the assay with MDA-MB-468 was 53%.

With `COc1cc2cc(Oc3ccc(NC(=O)Nc4cccc(C(F)(F)F)c4)cc3)c(C)nc2cc1OC`, the growth at 0.005 µM turned out to be 86% in the assay on NCI-H522; 95% in the assay with HOP-62; 102% with SK-MEL-2 [4]; 90% in the assay on T47D [10]; 105% with EKVX; 98% in the assay with M14. Also, the growth at 50 µM with HCT-116 was -86%; in the assay with MDA-MB-231, -82%; in the assay on MOLT-4, -22%; with SNB-19 [8], -26%; in the assay with ACHN [9], -34%; with K562 [11], -16%. The growth at 5 µM in the assay on SK-MEL-2 [2] is -34%; with SF-295 [6] it was -14%; with SNB-19 [7] it was 24%; in the assay with OVCAR-4, 25%. Moreover, the growth at 0.05 µM in the assay on K562 [3] is 99%; in the assay with OVCAR-3 it was 101%; in the assay with MCF7, 91%; in the assay on UACC-257, 94%; in the assay on ACHN [12] it was 99%; in the assay with HT-29 it was 100%. Further, the growth at 0.5 µM stood at 85% with A498, 86% with SF-295 [5], 107% in the assay with NCI-H322M and 94% in the assay on U-251.

One may read the inhibition as the drop in the measured response relative to a control, in per cent. With `COc1cc2cc(Oc3ccc(NC(=O)Nc4ccc(Cl)c(C(F)(F)F)c4)cc3)c(C)nc2cc1OC`, the inhibition in assay [13] is 0.06%; in assay [14] it was -7.21%; in assay [15], 74.2%; in assay [16], 1.04%.
